From patent US8288548B2, “Oxazolo[5-4-b]pyridin-5-yl compounds” (Eli Lilly and Company, priority 2010, dated 2012)

Legend:
[1] = target: human p38α MAP kinase (Homo sapiens, UniProt Q16539); test: Inhibition of p38α MAP kinase enzyme activity (33P-ATP filter assay); format: biochemical; details: 100 μM ATP, 11.8 nM p38α MAP kinase
Procedure: The kinase reaction buffer is prepared as a stock solution containing 1440 μL of 1 M 4-(2-hydroxyethyl)-1-piperazineethanesulfonic acid (HEPES) pH 7.5, 240 μL of 1 M MgCl2, 72 μL of 1 M dithiothreitol (DTT), 25 μL of 10% TRITON® X-100, 43223 μL of H2O. The substrate mix is prepared by combining the following: 2775 μL kinase reaction buffer, 75.0 μL adenosine triphosphate (ATP) at 10 mM, 270 μL EGFR peptide (Upstate Biotechnology/Millipore) at 4 mM (9.17 mg/mL) and 12.5 μL ^33P-ATP. The p38 MAP kinase enzyme stock solution is prepared by diluting 0.1 mg/mL solution of purified human p38α MAP kinase in 3000 μL of reaction buffer. Stock solutions of test compounds are generated by dissolving the compounds in 100% dimethyl sulfoxide (DMSO) at 10 mM. 100 μM stock dilution plates are generated by diluting 2 μL of 10 mM stock in 198 μL of 20% DMSO. 1:3 dilutions in 20% DMSO are generated from the 100 μM stock using a Tecan liquid handler.
For the kinase assay, 5 μL of diluted compound is transferred to the reaction plate, followed by 10 μL of enzyme stock solution (added using a MULTIDROP® liquid dispenser). […] Following the washing steps, 80 μL of MICROSCINT™20 is added and the radioactivity counted in a Trilux MICROBETA®. IC50 values are calculated using Activity Base software (IDBS).

[2] = tested on: p38 MAP kinase; test: In vivo inhibition of p38 MAP kinase in U87MG tumor-bearing mice (p-MAPKAPK2 in tumor lysates); set-up: species or system athymic nude mice; details: oral, 2 hours after dosing
Procedure: A murine xenograft model utilizing the human tumor cell line, U87MG, is used for assessment of inhibition of p38 MAP kinase in tumors
Female athymic nude mice (24-26 g, Harlan) are injected subcutaneously in the rear flank with 5×10^6 U87MG cells per animal Cells are injected in a 0.2 mL volume with a 1:1 mixture of cell culture media and BD […]™ matrix. 7 days after implant tumors are measured using a caliper and the data recorded. Tumors are measured twice weekly thereafter and the tumor size is recorded. When tumors reach an average volume of approximately 250 mm^3 (usually 10-15 days after implant), animals are randomized into groups of 8-10 for treatment. Animals are then dosed orally with 0.2 mL vehicle (1% HEC, 0.25% TWEEN® 80, 0.05% antifoam) alone or vehicle containing test compound. 2 Hours after dosing, animals are euthanized. […]
p-MAPKAPK2 levels in the tumor lysates are determined using a Mesoscale Discovery (MSD) capture ELISA kit (2 Phospho-MAPKAPK-2 (Thr334)). The concentration of protein in the lysates is determined using a BioRad DC protein assay kit (BioRad). […] Following incubation with the detection antibody, the MSD plate is washed followed by addition of MSD read buffer. After passage of current over the electrode, electro-chemiluminescence results in the generation of light that is quantified using the MSD Sector 6000 instrument. […]

Chain of human p38α MAP kinase (Q16539 whole entry): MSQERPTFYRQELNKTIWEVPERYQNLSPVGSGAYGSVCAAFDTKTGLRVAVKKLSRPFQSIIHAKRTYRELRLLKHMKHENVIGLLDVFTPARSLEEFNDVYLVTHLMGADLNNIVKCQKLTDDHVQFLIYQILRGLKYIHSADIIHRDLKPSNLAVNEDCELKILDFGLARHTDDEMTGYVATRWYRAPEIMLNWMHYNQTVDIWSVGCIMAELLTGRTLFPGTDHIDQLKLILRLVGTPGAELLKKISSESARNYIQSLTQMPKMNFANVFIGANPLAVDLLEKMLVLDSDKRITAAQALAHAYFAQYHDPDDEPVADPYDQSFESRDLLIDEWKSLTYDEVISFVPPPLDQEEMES

IC50 [1]: 3 nM
SMILES: COCC[C@H](C)Nc1nc2ccc(-c3nc(C(C)(C)CO)[nH]c3-c3ccc(F)cc3F)nc2o1 [Example 1, 2-[5-(2,4-Difluorophenyl)-4-[2-[[(1S)-3-methoxy-1-methyl-propyl]amino]oxazolo[5,4-b]pyridin-5-yl]-1H-imidazol-2-yl]-2-methyl-propan-1-ol]
TED70 for p38 MAP kinase target inhibition in tumors [2]: 2.9 mg/kg
TEC70 ([2]; U87MG tumors): 31.3 ng/mL
